According to publication PMC11971408, “Cryo-EM analyses unveil details of mechanism and targocil-II mediated inhibition of S. aureus WTA transporter TarGH” (Nature Communications, 2025):

Key:
[1] = biological target: T1, TarH (TarGH nucleotide binding domain) (Staphylococcus aureus, UniProt Q2FJ01); experiment: malachite green ATPase assay of purified TarGH (Michaelis-Menten); format: biochemical
T1 construct: gene tagH; full-length TarH (residues 1–264) in TarG2H2 heterotetramer; with TarG (A0A0H2XIF1)

[2] = biological target: T1, TarH (TarGH nucleotide binding domain); experiment: cryo-EM structure at […] Å
[3] = biological target: T2, TarG (TarGH WTA transporter, transmembrane domain) (Staphylococcus aureus, UniProt A0A0H2XIF1); experiment: cryo-EM structures ([…] Å with AMP-PNP; […] Å with ATPγS), MST; IC50 from malachite green ATPase assay of purified TarGH; format: biochemical
T2 construct: gene tagG; full-length TarG with N-terminal His tag, co-expressed with TarH (residues 1–264) as TarG2H2 heterotetramer; with TarH (Q2FJ01)
T2 sequence (A0A0H2XIF1 1-270): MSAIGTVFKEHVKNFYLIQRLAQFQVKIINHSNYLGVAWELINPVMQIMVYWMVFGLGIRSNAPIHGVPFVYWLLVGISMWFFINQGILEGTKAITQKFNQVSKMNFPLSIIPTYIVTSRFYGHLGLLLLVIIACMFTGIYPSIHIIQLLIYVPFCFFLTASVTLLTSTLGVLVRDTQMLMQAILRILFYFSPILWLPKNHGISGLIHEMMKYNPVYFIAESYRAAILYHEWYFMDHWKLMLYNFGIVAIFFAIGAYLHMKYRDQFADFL
T2 sequence (Q2FJ01 whole entry partner, the tested form may be a part): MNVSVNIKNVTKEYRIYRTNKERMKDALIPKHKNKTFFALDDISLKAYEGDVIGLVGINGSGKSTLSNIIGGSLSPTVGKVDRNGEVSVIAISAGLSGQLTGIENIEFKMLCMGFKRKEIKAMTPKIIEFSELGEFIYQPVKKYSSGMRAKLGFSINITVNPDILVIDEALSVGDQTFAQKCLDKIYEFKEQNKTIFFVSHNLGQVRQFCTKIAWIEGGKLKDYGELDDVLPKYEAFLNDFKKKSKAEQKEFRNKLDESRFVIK

T1 sequence (Q2FJ01 whole entry, the tested form may be a part): as the sequence (Q2FJ01 whole entry partner, the tested form may be a part) above
T1 sequence (A0A0H2XIF1 1-270 partner): as the sequence (A0A0H2XIF1 1-270) above

## Nc1ncnc2c1ncn2[C@@H]1O[C@H](COP(=O)(O)OP(=O)(O)OP(=O)(O)O)[C@@H](O)[C@H]1O [ATP]
[1]
  malachite green ATPase assay of purified TarGH (Michaelis-Menten): ~ 70 mol Pi/min mol protein

## Nc1ncnc2c1ncn2[C@@H]1O[C@H](CO[P@](=O)(O)O[P@](=O)(O)O[P@@](=O)(O)S)[C@@H](O)[C@H]1O [ATPγS]
[2]
  cryo-EM structure at 2.3 Å: ATPγS is well resolved at the TarH dimer interface, forming characteristic interactions with the ABC motifs

## Cc1c(CC(=O)N2CCC[C@H]2C(=O)O)c(=O)oc2c(C)c3occ(-c4ccc(Cl)cc4)c3cc12 [targocil-II]
[3]
  IC50: 6.5 ± 1.2 µM
